Results as given in ChEMBL document CHEMBL1201862, “PubChem BioAssay data set” (2004).
The source made the active and inactive calls.

How the values were obtained:
[1] = microbe, parasite or virus in culture; assay type: functional; conditions: Mycobacterium tuberculosis
[2] = target: Major prion protein (Homo sapiens, UniProt P04156); assay type: functional, cell-based
[3] = cells
[4] = HeLa 2N DNA content increase, dose response, cell-based, IC50 (AID 1117349); assay type: functional
[5] = Concentration-dependent survival of SW480 colon cancer line, luminescence detection with CellTiter-Glo, half-maximal inhibitory concentration (AID 1117338); assay type: functional
[6] = RKO cell viability reduction, dose response, CellTiter-Glo luminescence (AID 1117322); assay type: functional
[7] = cytotoxicity toward HCT116 cells – cell-based, CellTiter-Glo luminescence, IC50, dose response (AID 1117332); assay type: functional; conditions: HCT-116
[8] = SNU-C1 cell viability reduction, dose response, CellTiter-Glo luminescence (AID 1117323); assay type: functional, cell-based
[9] = cytotoxicity toward Colo320 cells – cell-based, CellTiter-Glo luminescence, IC50, dose response (AID 1117334); assay type: functional; conditions: COLO 320
[10] = HeLa 4N DNA content increase, dose response, cell-based, IC50 (AID 1117351); assay type: functional
[11] = cytotoxicity toward HT-29 cells – cell-based, CellTiter-Glo luminescence, IC50, dose response (AID 1117330); assay type: functional
[12] = CellTiter-Glo luminescent dose response of DLD-1 viability loss (AID 1117352); assay type: functional
[13] = HCT116 cell viability decrease, GSK3B pretreatment – CellTiter-Glo, IC50, dose response (AID 1117339); assay type: functional; conditions: HCT-116
[14] = target: T1, Apoptotic protease-activating factor 1 (Homo sapiens, UniProt O14727); assay type: functional
T1 sequence (O14727 whole entry): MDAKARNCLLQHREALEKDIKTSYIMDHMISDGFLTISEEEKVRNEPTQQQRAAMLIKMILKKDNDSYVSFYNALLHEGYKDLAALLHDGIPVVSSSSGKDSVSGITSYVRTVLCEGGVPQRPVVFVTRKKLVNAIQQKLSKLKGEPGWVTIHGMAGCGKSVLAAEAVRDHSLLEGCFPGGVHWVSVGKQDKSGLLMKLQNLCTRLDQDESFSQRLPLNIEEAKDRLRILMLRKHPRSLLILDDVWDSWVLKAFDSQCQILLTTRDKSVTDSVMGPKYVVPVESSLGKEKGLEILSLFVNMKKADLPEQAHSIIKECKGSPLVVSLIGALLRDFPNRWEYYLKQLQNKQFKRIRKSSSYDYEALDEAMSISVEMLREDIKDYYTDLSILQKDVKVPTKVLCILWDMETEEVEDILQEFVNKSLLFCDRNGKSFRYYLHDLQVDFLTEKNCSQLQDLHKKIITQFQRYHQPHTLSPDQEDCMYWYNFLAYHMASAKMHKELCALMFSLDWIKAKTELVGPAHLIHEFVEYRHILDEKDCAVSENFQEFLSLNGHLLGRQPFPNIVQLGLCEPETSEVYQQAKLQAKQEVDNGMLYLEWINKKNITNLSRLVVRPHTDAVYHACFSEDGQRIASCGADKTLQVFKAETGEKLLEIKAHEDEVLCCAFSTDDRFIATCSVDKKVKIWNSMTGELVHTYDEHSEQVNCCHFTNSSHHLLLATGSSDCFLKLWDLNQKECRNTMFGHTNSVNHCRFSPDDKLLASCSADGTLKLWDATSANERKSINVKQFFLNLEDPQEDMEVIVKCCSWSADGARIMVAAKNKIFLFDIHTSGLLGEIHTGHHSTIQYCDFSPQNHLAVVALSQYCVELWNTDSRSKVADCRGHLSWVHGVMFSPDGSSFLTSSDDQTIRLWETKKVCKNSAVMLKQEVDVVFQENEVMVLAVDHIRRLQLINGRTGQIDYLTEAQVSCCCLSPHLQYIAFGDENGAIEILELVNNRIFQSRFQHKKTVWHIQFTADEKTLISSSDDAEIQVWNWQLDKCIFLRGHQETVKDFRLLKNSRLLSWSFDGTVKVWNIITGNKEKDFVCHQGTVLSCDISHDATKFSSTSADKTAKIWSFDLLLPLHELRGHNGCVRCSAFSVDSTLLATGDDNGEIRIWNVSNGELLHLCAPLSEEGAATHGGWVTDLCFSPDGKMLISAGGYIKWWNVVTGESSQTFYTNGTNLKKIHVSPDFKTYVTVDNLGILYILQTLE

[15] = target: Tyrosyl-DNA phosphodiesterase 2 (Homo sapiens, UniProt O95551); assay: human TDP2 enzyme inhibitors, dose response, biochemical, epi absorbance, IC50 (AID 743297)
[16] = Luminescent dose response cell-based high throughput screening assay for inhibitors of the Janus kinase 2 mutant JAK2V617F. [Related pubchem assays: 1446 (Primary screen.), 1521 (Confirmation assay.), 1486 (Counter screen.)]; assay type: functional
[17] = target: T2, Mucolipin-3 (Homo sapiens, UniProt Q8TDD5); assay: Dose response cell-based high-throughput screening assay for agonists of the transient receptor potential channel ML3 (TRPML3). [Related pubchem assays: 1526, 1424, 1448 ]; assay type: functional
T2 sequence (Q8TDD5 whole entry): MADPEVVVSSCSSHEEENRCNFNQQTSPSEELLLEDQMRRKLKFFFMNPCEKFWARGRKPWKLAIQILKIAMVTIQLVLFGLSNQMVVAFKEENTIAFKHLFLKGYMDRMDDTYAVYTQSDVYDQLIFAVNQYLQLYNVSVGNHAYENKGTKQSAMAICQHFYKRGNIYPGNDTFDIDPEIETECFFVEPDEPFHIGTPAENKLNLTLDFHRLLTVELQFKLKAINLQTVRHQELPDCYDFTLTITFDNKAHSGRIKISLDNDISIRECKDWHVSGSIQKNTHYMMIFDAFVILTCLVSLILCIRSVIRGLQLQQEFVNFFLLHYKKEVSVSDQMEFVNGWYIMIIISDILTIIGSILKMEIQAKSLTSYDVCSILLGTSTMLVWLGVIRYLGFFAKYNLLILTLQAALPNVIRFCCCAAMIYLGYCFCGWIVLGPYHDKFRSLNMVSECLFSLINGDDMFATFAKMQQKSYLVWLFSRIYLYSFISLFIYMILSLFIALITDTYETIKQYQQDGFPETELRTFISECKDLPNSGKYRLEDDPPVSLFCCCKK

[18] = target: Ion channel NompC (Danio rerio, UniProt Q7T1G6); assay: Fluorescence counterscreen assay for TRPML3 agonists: dose response cell-based high-throughput screening assay to identify agonists of the transient receptor potential channel N1 (TRPN1). [Related pubchem assays: 1526, 1424, 1448 ]; assay type: functional
[19] = Luminescence Cell-Based Dose Retest to Confirm Inhibitors of Cancer Stem Cells. [Related pubchem assays (depositor defined):AID2717, AID2721]; assay type: functional; conditions: Homo sapiens
[20] = Fluorescence-based cell-based high throughput dose response assay for inhibitors of the interaction of nucleotide-binding oligomerization domain containing 2 (NOD2) and the receptor-interacting serine-threonine kinase 2 (RIPK2).; assay type: functional; conditions: Homo sapiens
[21] = target: E3 ubiquitin-protein ligase Mdm2 (Homo sapiens, UniProt Q00987); assay: enhancers of MDM2-luciferase reporter signal, concentration-effect titration, project on inhibitors of MDM2 ubiquitin ligase, cellular assay, luminescent readout, 384-well plate format (AID 1394); assay type: functional;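 note: MDM2 E3 inhibitors raise luminescence so EC50 is for signal enhancement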
[22] = THP-1 cell cytotoxicity, dose response, cytotoxicity control for Vif-APOBEC3G degradation inhibitor project, THP-1 cells (AID 1117359); assay type: functional; conditions: Human immunodeficiency virus 1, THP-1
[23] = P. falciparum 3D7-ScDHODH growth inhibitors, dose response, SYBR Green, dry powder samples (AID 1159570); assay type: functional, cell-based;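 note: parasite growth measured after 72 hours of compound exposure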
[24] = HepG2 cell cytotoxicity, dose response, cytotoxicity control, plate reader, dry powder samples (AID 1159569); assay type: functional, cell-based;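 note: inhibitor potency with signal falling toward the positive control level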
[25] = P. falciparum Dd2 growth inhibitors, dose response, SYBR Green, cherry-picked samples (AID 1159567); assay type: functional, cell-based
[26] = P. falciparum Dd2 growth inhibitors, dose response, SYBR Green, dry powder samples (AID 1159566); assay type: functional, cell-based;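 note: potency for growth inhibition with lower SYBR green DNA signal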
[27] = HepG2 cell cytotoxicity, dose response, cytotoxicity control, cherry-picked samples (AID 1159577); assay type: functional, cell-based
[28] = P. falciparum ATP4 D1247Y mutant growth inhibitors, dose response, NITD609-resistant line, SYBR Green, dry powder (AID 1159571); assay type: functional, cell-based;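 note: parasites synchronized at ring stage by sorbitol before testing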
[29] = NIH-3T3 fibroblast cytotoxicity, dose response, cytotoxicity control, cell-based, fluorescence, Alamar Blue, secondary assay (AID 2327); assay type: functional;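 note: NIH-3T3 mouse fibroblasts cultured with fluconazole at 8 µg/mL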
[30] = C. albicans growth with fluconazole, confirmation, fluorescence, retest (AID 2467); assay type: functional, cell-based
[31] = target: Luciferin 4-monooxygenase (Photinus pyralis, UniProt P08659); assay: firefly luciferase enzyme inhibitors, dose response, biochemical, luminescence (AID 1891)
[32] = Luminescence Cell-Based Dose Confirmation HTS to Identify Inhibitors of Platelet Dense Granule Release. [Related pubchem assays: 1663 (Primary HTS), 1678 (Summary of Project)]; assay type: functional
[33] = target: Heat shock protein HSP 90-alpha (Homo sapiens, UniProt P07900); assay: Luminescence-based dose response biochemical high throughput screening assay for inhibitors of the Heat Shock Protein 90 (HSP90). [Related pubchem assays: 1831 (Summary AID.), 1846 (Confirmation screen.), 1789 (Primary screen.)]
[34] = system: INS1; assay: beta cell apoptosis inhibitors, cytokine rescue, dose response, luminescence, retest (AID 449756); assay type: functional, cell-based; conditions: Rattus norvegicus;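 note: cell death triggered by IL-1 beta plus TNF-alpha plus IFN-gamma mixture; protective hits raise ATP signal compared with cytokine alone wells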

## CC1CCC(NC(=O)c2cc3c(s2)CCCC3)CC1 (stereo unspecified)
[1]
  CC50: > 40 µM (active)
[2]
  IC50: 4.39 µM (active)
[3]
  IC50: > 138 µM (inactive)

## CCCSc1ccc2[nH]c(NC(=O)OC)nc2c1 [ALBENDAZOLE]
[4]
  IC50: 0.0656 µM (active)
[5]
  IC50: > 20 µM (inactive)
[6]
  IC50: 0.165 µM (active)
[7]
  IC50: 0.112 µM (active)
[8]
  IC50: > 20 µM (inactive)
[9]
  IC50: 0.502 µM (active)
[10]
  IC50: 0.0612 µM (active)
[11]
  IC50: > 20 µM (inactive)
[12]
  IC50: 0.108 µM (active)
[13]
  IC50: 0.158 µM (active)

## COc1cc2c(cc1O)[C@@H]1Cc3ccc(OC)c(O)c3CN1CC2 [SCOULERINE]
[14]
  IC50: 16.3 µM (active)
[15]
  IC50: > 128 µM (inactive)

## O=S(=O)(c1cnc(Cl)c(Br)c1)N1CCc2ccccc21
[16]
  IC50: 4.22 µM (active)
[17]
  EC50: 7.71 µM (active)
[18]
  EC50: > 29.9 µM (not active)
[19]
  AC50: 12.1 µM (inconclusive)
[20]
  IC50: 6.35 µM (active)

## COCCNc1nc2nonc2nc1N(C)Cc1cccc2cnccc12
[21]
  EC50: 0.22 µM (not active)

## O=[N+]([O-])c1ccc2c([N+](=O)[O-])ccc3c2c1CC3
[22]
  CC50: > 40 µM (active)

## COc1cc2cc(Br)cc(Br)c2nc1C
[2]
  IC50: 4.51 µM (active)
[3]
  IC50: > 138 µM (inactive)

## COc1cccc(C#Cc2ccc([C@@H]3[C@@H](CO)N(C(=O)C4CCCCC4)[C@H]3C#N)cc2)c1
[23]
  AC50: 2 µM (active)
[24]
  AC50: 24.5 µM (active)
[25]
  AC50: 2.6 µM (active)
[26]
  AC50: 1.72 µM (active)
[27]
  AC50: > 39 µM (inactive)
[28]
  AC50: 2.06 µM (active)

## CCCCOc1ccc(-c2cc(C(=O)NN=C(S)NCC)c3ccccc3n2)cc1
[29]
  EC50: 16.1 µM (inconclusive)
[30]
  EC50: 1.8 µM (active)
[31]
  EC50: 0.516 µM (active)
[32]
  EC50: < 0.701 µM (active)
[33]
  IC50: 2.45 µM (active)
[34]
  AC50: 3.2 µM (active)
